We go through 3 compounds from patent US20220273196A1, “INGESTIBLE DEVICE AND ASSOCIATED METHODS” (Biora Therapeutics, Inc., priority 2017, published 2022).

One data set deals with cyclophilin (Homo sapiens, UniProt P62937). The settings on record: cited from earlier work.
Data set [1] can be described thus: Dissolving drug pills or powder in water for spectroscopy samples. The settings on record: pills or powder (Sigma A5000) in water, 0.1-10% (w/v) samples. The format is physicochemical. The text has this: Other test samples included anti-inflammatory drugs, e.g., Ibuprofen and Acetaminophen, dissolved in water. Yet other test samples included microcrystalline cellulose, which can be one primary filler material in anti-inflammatory drugs, dissolved in water. […] The Ibuprofen, Acetaminophen and microcrystalline cellulose samples held by the well plate 700B were used to perform spectroscopy of Ibuprofen, Acetaminophen and microcrystalline cellulose in reflectance mode using Benchtop spectrometers #5, #2 and #3. Further, the Ibuprofen and Acetaminophen samples were siphoned from the well plate 700B and combined into a few cuvettes. […] These Ibuprofen and Acetaminophen samples held by the cuvettes were used to perform spectroscopy of Ibuprofen and Acetaminophen in transmission mode using Benchtop spectrometers #4, #5, #2 and #3.
Some test samples included solutions of Ibuprofen having various concentrations. Ibuprofen powder (Sigma 11892) was dissolved in water directly in cuvettes having an optical path thickness of 10 mm. These solutions had Ibuprofen concentrations varying in the range of 0.1-10% (w/v). Other test samples included solutions of Acetaminophen having various concentrations. Acetaminophen powder (Sigma A5000) was dissolved in water directly in cuvettes having an optical path thickness of 10 mm. […]

For data set [2], the system named is murine models of inflammatory bowel disease (IBD). The note with it: numerous murine models; cited from earlier work.

“Also recorded” adds a separate entry of the source.

Chain of cyclophilin (P62937 whole entry): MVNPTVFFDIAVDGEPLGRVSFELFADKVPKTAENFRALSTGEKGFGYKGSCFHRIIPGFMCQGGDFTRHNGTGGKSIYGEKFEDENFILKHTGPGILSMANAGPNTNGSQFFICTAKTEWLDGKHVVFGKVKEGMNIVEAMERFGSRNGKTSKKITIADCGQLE

On to `C=C/C=C/C[C@@H](C)[C@@H](O)[C@H]1C(=O)N[C@@H](CC)C(=O)N(C)CC(=O)N(C)[C@@H](CC(C)C)C(=O)N[C@@H](C(C)C)C(=O)N(C)[C@@H](CC(C)C)C(=O)N[C@@H](C)C(=O)N[C@H](C)C(=O)N(C)[C@@H](CC(C)C)C(=O)N(C)[C@@H](CC(C)C)C(=O)N(C)[C@@H](C(C)C)C(=O)N1C` [voclosporin], for which, at cyclophilin, the “binding affinity for cyclophilin relative to cyclosporine A” value is “comparable”. Regarding `CC(=O)Nc1ccc(O)cc1` [Acetaminophen], the solubility in water entry in data set [1] was “limited solubility in water; also recorded: poor solubility”. Turning to “L-glutamic acid polymer with L-alanine, L-lysine and L-tyrosine, acetate (salt) [Glatiramer acetate]”, the “effect on inflammation and pathological manifestations of IBD” value in data set [2] was “reduce inflammation and ameliorate the pathological manifestations”.
